Data as given in US20110312898A1, “PROPHYLACTIC / THERAPEUTIC AGENT FOR CANCER” (Takeda Pharmaceutical Company Limited, priority 2008, published 2011).
Square brackets hold non-standard residues; d marks the D form. Arg(Me) = CNC(=N)NCCC[C@H](N)C(=O)O; Hyp = O=C(O)[C@@H]1C[C@@H](O)CN1; azaGly = NNC(=O)O

Assays:
Dunning R3327-G cells = assay: Androgen-independent antitumor effects, Dunning R3327-G cells implanted in orchiectomized Copenhagen rats; format: in vivo, rat; details: 50 nmol/kg/W, subcutaneous ALZET pump; day 52 following the start of dosing; compared with solvent group
Text: Dunning R3327-G cells, an androgen-sensitive rat prostate cancer cell line, were implanted into orchiectomized Copenhagen rats, and the androgen-independent antitumor effects by Compound No. 550 and Compound No. 723 were investigated.
R3327-G cells (7×10^6) were implanted subcutaneously in 10-week-old orchiectomized male Copenhagen rats. Fifty days after implantation, the rats were divided into groups based on the tumor volume, and were then assigned to a Compound 550—50 nmol/kg/W group, a Compound No. 723—50 nmol/kg/W group, and a solution group (each group consisting of 10 animals). The dose was calculated based on the mean weight of the animals on the day that dosing was begun. Administration was carried out by subcutaneous implantation in the dorsal region using an ALZET pump. The tumor diameter was measured on days 50, 65, 71, 78, 91 and 102 following cell implantation (days 0, 15, 21, 28, 41 and 52 following the start of dosing). The tumor volume (mm^3) was calculated as follows: major axis×minor axis^2÷2. Owing to deaths and the euthanization of animals in the course of the tests, on day 52 following the start of dosing (day 102 after transplantation), only six animals remained in the solution group and only seven animals remained in the Compound No. 723 group.

DU145 = assay: Antitumor activity in DU145 tumor-bearing male rat model; format: in vivo; details: microcapsule powder s.c. 10, 30 and 60 days after transplantation; No. 550 10 mg/kg, No. 723 1 or 10 mg/kg; 74 days after transplantation; vs surgically castrated group
Protocol: Evaluation of antitumor activity of the metastin peptide derivative in DU145 tumor-bearing male rat model
Antitumor activity of Compound No. 550 and Compound No. 723 against a DU145 tumor-bearing male rat model was evaluated. Specifically, 1×10^6 cells/100 μL suspension of DU145 (androgen-independent cell line, GPR54 highly expressing cell line, ATCC) was mixed with 100 μL of basement membrane matrix: Matrigel (trade name, BD Biosciences), and the obtained mixture was transplanted under the abdominal skin of 7-week-old F344/NJc1-rnu/rnu male rats (CLEA Japan, Inc.) which had been etherized. 10 days after the transplantation, the rats in which the volume of subcutaneous tumor reached 200 mm^3 were divided into 4 groups (Groups A-D, 10 rats for each group). […]
Regarding Group D, the rats were surgically castrated and used as the negative control group. […] 74 days after the transplantation of DU145 cells, the tumor volume (longer diameter×shorter diameter×shorter diameter/2) was measured. […]

[1] = tested on: human prostate cancer cell line VCaP; assay: Growth-inhibitory activity on VCaP spheroids (CellTiter-Glo); format: cell-based; details: 10% DCC-FCS
Protocol: Evaluation of the growth-inhibitory activity of the metastin peptide derivative using human prostate cancer cell line VCaP
Regarding Compound No. 723, the inhibitory activity on androgen-independent growth of human prostate cancer cell line VCaP (CRL-2876, American Type Culture Collection) was evaluated. […] in the state of three-dimensional culture (spheroid) was used in the evaluation. Specifically, VCaP cells were suspended in a DMEM medium (Ref. No. 11995, Invitrogen) containing 10% FCS (Cat. No. 171012, Cell Culture Bioscience) to set the concentration to 1.5×10^6 cells/mL. The obtained suspension was spotted on a cover of a tissue culture dish (Ref. No. 353003, FALCON) (20 μL for each) to perform Hanging drop culture (3×10^4 cells/drop). In order to prevent drying, 10 mL of DPBS (Ref. No. 14190, Invitrogen) was added to the culture dish. […]
(§1) Cell growth was quantified 9 days after the start of the treatment with Compound No. 723 by measuring the chemical luminescence evoked by cellular ATP using CellTiter-Glo Luminescent Cell Viability Assay (Promega). Wallac 1420 ARVO MX/Light (Parkin Elmer) was used for the measurement of the luminescence intensity.

[2] = tested on: human prostate cancer cell line 22Rv1; assay: Growth-inhibitory activity on 22Rv1 spheroids (CellTiter-Glo); format: cell-based; details: 10% DCC-FCS
Protocol: Evaluation of the growth-inhibitory activity of the metastin peptide derivative using human prostate cancer cell line 22Rv1
Regarding Compound No. 723, the growth-inhibitory activity on androgen-independent human prostate cancer cell line 22Rv1 (CRL-2505, American Type Culture Collection) was evaluated. […] in the state of three-dimensional culture (spheroid) was used in the evaluation. Specifically, 22Rv1 cells were suspended in a RPMI1640 medium (Ref. No. 22400, Invitrogen) containing 10% FCS (Cat. No. 171012, Cell Culture Bioscience) to set the concentration to 1.5×10^6 cells/mL. The obtained suspension was spotted on a cover of a tissue culture dish (Ref. No. 353003, FALCON) (20 μL for each) to perform Hanging drop culture ([…]). In order to prevent drying, 10 mL of DPBS (Ref. No. 14190, Invitrogen) was added to the culture dish. […]
as §1

Substance | antitumor effects (tumor volume) (Dunning R3327-G cells) | antitumor effects (tumor volume) (DU145) | Luminescence intensity ([1]; 1 μM supplied every 12 hours for 8 days, 9 days after start of treatment, cellular ATP, n = 18, Control 564458 ± 27628) | androgen-independent growth of human prostate cancer cells (VCaP) ([1]; 1 μM, vs control) | Luminescence intensity ([2]; 1 μM supplied every 12 hours for 8 days, 9 days after start of treatment, cellular ATP, n = 18, Control 483469 ± 55917) | growth of androgen-independent human prostate cancer cells (22Rv1) in the absence of androgen ([2]; 1 μM, vs control)
Ac-[dY][dW]NTF[azaGly]L[Arg(Me)]W-NH2 [Compound No. 550] | significant antitumor effects | antitumor effects more than the surgical castration | – | – | – | –
Ac-D-Tyr-Hyp-Asn-Thr-Phe-AzaGly-Leu-Arg(Me)-Trp-NH2 (Ac-[dY][Hyp]NTF[azaGly]L[Arg(Me)]W-NH2) [Compound No. 723] | significant antitumor effects | antitumor effects more than the surgical castration | 507191 ± 73146 | significantly reduced the androgen-independent growth | 401291 ± 40565 | significantly reduced the growth
